Entries after “also recorded” stand apart in the source; their conditions may differ.
How the values were obtained:
[1] = 4 h pharmacokinetic pilot study in wild-type, Abcb1a/1b;Abcg2-/- and Slco1a/1b-/- mice; format: in vivo; settings: for abnormal external behavior (acute toxicity): 10 mg/kg oral
Procedure: Mice were housed and handled according to institutional guidelines complying with Dutch and EU legislation. All experimental animal protocols were evaluated and approved by the institutional animal care and use committee. Wild-type, Abcb1a/1b^-/-, Abcg2^-/-, Abcb1a/1b; Abcg2^-/-, Slco1a/1b^-/- male mice, and Cyp3a^-/- and Cyp3aXAV female mice, all of a >99% FVB genetic background, were used between 9 and 16 weeks of age. […] All experimental animal protocols (WP9450, 9669, 9760), including power calculations, designed under the nationally approved DEC/CCD project AVD301002016595, were evaluated and approved by the institutional animal care and use committee of The Netherlands Cancer Institute. […]
For the 4 h transporter experiments, tail-vein blood samples were collected at 0.125, 0.25, 0.5, 1, and 2 h time points after oral administration, respectively. For the CYP3A 8 h experiments, tail-vein blood sampling was performed at 0.25, 0.5, 1, 2, and 4 h, respectively. While for elacridar inhibition experiments, tail-vein blood samples were collected at 0.125, 0.25, 0.5, and 1 h time points after oral administration, respectively. Blood sample collection was performed using microvettes containing dipotassium EDTA. At the last time point in each experiment (2, 4 or 8 h), mice were anesthetized with 5% isoflurane and blood was collected by cardiac puncture. Blood samples were collected in Eppendorf tubes containing heparin as an anticoagulant. The mice were then sacrificed by cervical dislocation and brain, liver, kidney, lung, small intestine and testis were rapidly removed. Plasma was isolated from the blood by centrifugation at 9000× g for 6 min at 4 °C, and the plasma fraction was collected and stored at −30 °C until analysis. Organs were homogenized with 4% (w/v) bovine serum albumin and stored at −30 °C until analysis.
Pharmacokinetic parameters were calculated by noncompartmental methods using the PK solver software. The area under the plasma concentration–time curve (AUC) was calculated using the trapezoidal rule, without extrapolating to infinity. The peak plasma concentration (Cmax) and the time of maximum plasma concentration (Tmax) were estimated from the original (individual mouse) data. One-way analysis of variance (ANOVA) was used when multiple groups were compared and the Tukey post hoc correction was used to accommodate multiple testing. The two-sided unpaired Student’s t-test was used when treatments or differences between two specific groups were compared using the software GraphPad Prism 8 (GraphPad Software Inc., La Jolla, CA, USA). All the data were log-transformed before statistical tests were applied. Differences were considered statistically significant when p < 0.05. All data are presented as geometric mean ± SD.

human OATP1A2 = target: T1, human OATP1A2 (Homo sapiens, UniProt P46721); test: Cellular uptake in OATP1A2-overexpressing HEK293 cells; format: in vitro ADME; settings: 5 µM, 2.5 min incubation, HEK293 OATP1A2
T1 construct: Werner Siegmund and Dr. Markus Keiser (University of Greifswald); host or cells: HEK293
T1 sequence (P46721 1-670): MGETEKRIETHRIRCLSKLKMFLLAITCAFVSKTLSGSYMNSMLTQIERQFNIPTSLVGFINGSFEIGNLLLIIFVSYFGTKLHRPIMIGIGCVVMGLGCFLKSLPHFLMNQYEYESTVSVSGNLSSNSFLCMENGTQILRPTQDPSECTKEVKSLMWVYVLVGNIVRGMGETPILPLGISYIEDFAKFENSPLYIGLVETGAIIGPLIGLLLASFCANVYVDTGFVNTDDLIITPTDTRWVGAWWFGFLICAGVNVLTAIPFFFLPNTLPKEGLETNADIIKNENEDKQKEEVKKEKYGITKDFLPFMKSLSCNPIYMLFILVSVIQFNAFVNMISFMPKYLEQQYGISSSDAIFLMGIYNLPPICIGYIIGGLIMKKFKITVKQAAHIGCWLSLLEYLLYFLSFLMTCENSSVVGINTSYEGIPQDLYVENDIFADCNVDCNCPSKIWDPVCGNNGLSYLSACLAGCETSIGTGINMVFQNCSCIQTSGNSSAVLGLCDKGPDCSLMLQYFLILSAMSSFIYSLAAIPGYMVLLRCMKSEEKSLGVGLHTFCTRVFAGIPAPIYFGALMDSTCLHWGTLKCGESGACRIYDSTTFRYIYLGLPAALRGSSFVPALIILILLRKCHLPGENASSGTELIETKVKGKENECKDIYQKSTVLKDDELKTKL
Procedure: HEK293 cells, vector-transfected or human (h)SLCO1A2, hSLCO1B1 or hSLCO1B3 cDNA-transfected were kind gifts from Prof. Werner Siegmund and Dr. Markus Keiser (University of Greifswald, Greifswald, Germany). All the HEK293 cell lines were maintained in DMEM supplemented with 10% (v/v) FBS, 1% penicillin–streptomycin mix at 37 °C in 5% (v/v) CO2 and 500 μg/mL G418. Cells were first seeded in 12-well plates [coated with 50 mg/L poly (l-lysine) and 50 mg/L poly (l-ornithine)] at a density of 1.0 × 10^5 cells/well. For the uptake study, in order to induce the expression of OATP transporters, the cell culture medium was replaced with culture medium supplemented with 5 mM sodium butyrate 24 h before performing the uptake assay.
The uptake transport study was performed as described previously. […] The Krebs–Henseleit solution was prepared from Krebs–Henseleit-buffer modified powder and supplemented with 25 mM NaHCO3 and 2.5 mM CaCl2 adjusted to pH 6.4 with 1 M HCL. At 2.5 min, the incubation buffer was removed, and uptake was terminated by adding 1 mL of ice-cold Krebs–Henseleit buffer, followed by two times washing with 1 mL of ice-cold Krebs–Henseleit buffer. […] The cellular protein amount was determined by the Bradford method using 10 μL of the cell lysates with bovine serum albumin as a standard.

[2] = male, FVB (Abcb1a/1b;Abcg2-/-), mouse, in vivo, po, 10 mg/kg, 4 h
[3] = male, FVB (Slco1a/1b-/-), mouse, in vivo, po, 10 mg/kg, 4 h
[4] = male, FVB background, Abcb1a/1b;Abcg2-/-, mouse, in vivo, po, 10 mg/kg
[5] = male, FVB background, Slco1a/1b-/-, mouse, in vivo, po, 10 mg/kg
[6] = male, FVB background, wild-type, mouse, in vivo, po, 10 mg/kg

SMILES: COc1ccc(CN2C3CC2CN(c2ccc(-c4cc(OCC(C)(C)O)cn5ncc(C#N)c45)cn2)C3)cn1 [selpercatinib]
- abnormal external behavior (acute toxicity) ([1]; Abcb1a/1b;Abcg2-/- mice): did not observe any abnormal external behavior
- abnormal external behavior (acute toxicity) ([1]; Slco1a/1b-/- mice, 10 mg/kg): did not show any abnormal external behavior; also recorded: did not observe any abnormal external behavior
- CSIC (small intestine contents concentration) [1, 2]: 34,929 ± 16,659 ng/g
- Cliver [1, 2]: 19,077 ± 2696 ng/g
- concentration at 4 h ([1]; male, FVB (Abcb1a/1b;Abcg2-/-), mouse, in vivo, po, 10 mg/kg, CSIC (small intestine contents concentration)): 34900 ng/g
- concentration at 4 h ([1]; male, FVB (Abcb1a/1b;Abcg2-/-), mouse, in vivo, po, 10 mg/kg, Cbrain): 3450 ng/g
- concentration at 4 h ([1]; male, FVB (Abcb1a/1b;Abcg2-/-), mouse, in vivo, po, 10 mg/kg, Cliver): 19100 ng/g
- concentration at 4 h ([1]; male, FVB (Abcb1a/1b;Abcg2-/-), mouse, in vivo, po, 10 mg/kg, Ctestis): 5730 ng/g
- Cbrain [1, 3]: 278 ± 42 ng/g
- Cliver [1, 3]: 19,916 ± 3174 ng/g
- concentration at 4 h ([1]; male, FVB (Slco1a/1b-/-), mouse, in vivo, po, 10 mg/kg, Cbrain): 278 ± 42 ng/g
- concentration at 4 h ([1]; male, FVB (Slco1a/1b-/-), mouse, in vivo, po, 10 mg/kg, Cliver): 19900 ng/g
- concentration at 4 h ([1]; male, FVB (Slco1a/1b-/-), mouse, in vivo, po, 10 mg/kg, Ctestis): 1120 ng/g
- Cliver ([1]; male, FVB (wild-type), mouse, in vivo, po, 10 mg/kg, 4 h): 17,593 ± 3471 ng/g
- concentration at 4 h ([1]; male, FVB (wild-type), mouse, in vivo, po, 10 mg/kg, Cliver): 17600 ng/g
- AUC(0-t) [1, 4]: 30200 ng·h/mL
- Cmax [1, 4]: 8580 ± 2160 ng/mL
- Tmax [1, 4]: 1.6 ± 1.2 h
- AUC(0-t) [1, 5]: 36200 ng·h/mL
- Cmax [1, 5]: 11600 ng/mL
- Tmax [1, 5]: 1.7 ± 0.52 h
- concentration at 4 h ([1]; male, FVB background, Slco1a/1b-/-, mouse, in vivo, po, 10 mg/kg, CSIC (small intestine contents concentration)): 141000 ng/g
- AUC(0-t) [1, 6]: 26600 ng·h/mL
- Cmax [1, 6]: 7860 ± 1810 ng/mL
- Tmax [1, 6]: 1.8 ± 1.2 h
- concentration at 4 h ([1]; male, FVB background, wild-type, mouse, in vivo, po, 10 mg/kg, CSIC (small intestine contents concentration)): 91100 ng/g
- concentration at 4 h ([1]; male, FVB background, wild-type, mouse, in vivo, po, 10 mg/kg, Cbrain): 186 ± 23 ng/g
- concentration at 4 h ([1]; male, FVB background, wild-type, mouse, in vivo, po, 10 mg/kg, Ctestis): 730 ± 103 ng/g
- uptake compared to vector control cells (human OATP1A2): did not observe any significant increase in the uptake

From PMC8617681 (Pharmaceuticals, 2021)
